The source of these data is BindingDB's records for doi:10.1021/acs.jmedchem.1c01951 (University of South Carolina, 2022).

The test has as its target T1, Myosin-IIIb (Homo sapiens, UniProt Q8WXR4).
T1 sequence (Q8WXR4 whole entry): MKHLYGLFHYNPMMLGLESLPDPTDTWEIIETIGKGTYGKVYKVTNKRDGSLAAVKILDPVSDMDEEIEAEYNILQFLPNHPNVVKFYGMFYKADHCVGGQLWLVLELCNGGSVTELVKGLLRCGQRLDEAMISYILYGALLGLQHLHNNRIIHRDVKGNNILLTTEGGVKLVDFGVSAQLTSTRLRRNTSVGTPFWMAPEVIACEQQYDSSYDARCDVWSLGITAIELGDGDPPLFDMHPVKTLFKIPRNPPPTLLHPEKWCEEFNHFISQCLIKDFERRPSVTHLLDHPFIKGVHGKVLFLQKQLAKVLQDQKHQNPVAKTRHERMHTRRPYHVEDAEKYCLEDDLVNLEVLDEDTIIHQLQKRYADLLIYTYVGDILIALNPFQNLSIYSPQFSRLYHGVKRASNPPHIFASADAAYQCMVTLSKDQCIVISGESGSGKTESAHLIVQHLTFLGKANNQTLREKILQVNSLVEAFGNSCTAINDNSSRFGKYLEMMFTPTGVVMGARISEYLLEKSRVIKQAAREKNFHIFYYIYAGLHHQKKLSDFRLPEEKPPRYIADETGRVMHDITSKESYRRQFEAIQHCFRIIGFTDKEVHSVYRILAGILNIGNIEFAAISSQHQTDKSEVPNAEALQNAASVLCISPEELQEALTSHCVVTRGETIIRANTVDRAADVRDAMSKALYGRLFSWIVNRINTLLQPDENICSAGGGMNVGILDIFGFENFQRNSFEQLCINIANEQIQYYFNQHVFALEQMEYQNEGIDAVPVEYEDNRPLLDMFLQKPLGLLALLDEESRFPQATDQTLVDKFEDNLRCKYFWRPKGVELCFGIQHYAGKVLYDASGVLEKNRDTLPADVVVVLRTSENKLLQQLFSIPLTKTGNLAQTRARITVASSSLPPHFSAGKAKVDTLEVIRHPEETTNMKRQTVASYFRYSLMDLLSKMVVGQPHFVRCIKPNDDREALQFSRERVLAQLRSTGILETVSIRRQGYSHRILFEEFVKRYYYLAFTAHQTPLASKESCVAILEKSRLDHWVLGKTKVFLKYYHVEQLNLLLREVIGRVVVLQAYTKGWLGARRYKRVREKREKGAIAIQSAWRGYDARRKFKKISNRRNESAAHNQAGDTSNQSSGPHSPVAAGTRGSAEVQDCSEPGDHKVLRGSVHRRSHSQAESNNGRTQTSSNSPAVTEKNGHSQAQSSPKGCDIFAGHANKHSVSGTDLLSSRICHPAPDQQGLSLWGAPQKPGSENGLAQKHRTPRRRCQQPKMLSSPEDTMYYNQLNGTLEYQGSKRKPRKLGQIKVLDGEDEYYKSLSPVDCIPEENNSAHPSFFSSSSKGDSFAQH
The experiment in a line: Binding affinity to human MYO3B assessed as dissociation constant by KdELECT Discover assay.

pKd: −log10 of the molar value.

As a reminder, the pKd is the negative decadic logarithm of the Kd, by convention in mol/L. Consider `CN1CCN(C(=O)c2ccc3cc(CCNc4ccnc5ccc(C#N)cc45)ccc3c2)CC1`, for which the negative logarithm of the Kd (pKd) is less than 4.52.
